Test results as given in patent US20160355782A1, “METHOD FOR ENHANCING DIFFERENTIATION OF DOPAMINERGIC NEURONS” (Buddhist Tzu Chi Medical Foundation, priority 2015, published 2016).

System: midbrain explants
Assay: Midbrain explant cultures, TH+ cell numbers
Assay type: cell-based, rat
Conditions: without exogenous UCN
Description: Midbrain explants were dissected from E13.5 embryos by the method known by a person skilled in the art, for example as the protocol described by Baizabal and Covarrubias (2009) and performed with some modifications.
The dorsal midline of the explants was cut and the tissue was placed on porous (0.4 μm) transparent membrane inserts (25-mm in diameter, Nunc, Roskilde, Denmark) with the ventricular surface facing up. Inserts were then placed into six-well culture plates. Each well contained 1.5 mL of MEM medium supplemented with 10% FBS, 100 U/mL penicillin, and 100 μg/mL streptomycin. Explants were incubated at 37° C. with 5% CO2 for 4 hours, after which the explants were incubated in a serum-free DMEM/F12/N2 medium with or without UCN for 3 days. Midbrain explants were then fixed with 4% paraformaldehyde and immuno-histochemical analysis was performed.

[1] = CP-376395 in combination with astressin 2B

Molecule	TH+ cell numbers in the VM of midbrain explants (astressin)	TH+ cell numbers in the VM of midbrain explants [1]
astressin	reduce	
astressin 2B		reduce
CCC(CC)Nc1cc(C)nc(Oc2c(C)cc(C)cc2C)c1C [CP-376395]		reduce
